Data taken from patent US20250163057A1, “DCN-1 MODULATING COMPOUNDS AND METHODS OF USE THEREOF” (Cellarity, Inc., priority 2023, published 2025).
Where two headings read alike, the source gives them in different places.

Assays:
DCN1 protein = DCN1 protein (Homo sapiens (Human), UniProt Q96GG9); assay: Intact Protein MS Analysis with the RapidFire-TOF System (covalent adduct formation); assay type: binding; conditions: MS Emax; 400 nM DCN1, 3 hours at room temperature
Procedure, shortened: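 Tag-cleaved human DCN1 (400 nM) expressed in E. coli, in 25 mM Tris-HCl, 200 mM NaCl, 1 mM DTT, was incubated with 11 compound concentrations for 3 h at room temperature and quenched with 0.2% formic acid. Intact-protein Q-TOF MS with deconvolution detected the compound adduct mass.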

[1] = target: T1, DCN1 (DCUND1) protein PONY domain (Homo sapiens (Human), UniProt Q96GG9); assay: TR-FRET assay, DCN1 binding with FAM-labeled probe
Procedure, shortened: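 Tb-DCN1 PONY domain (E. coli, biotin/streptavidin-Tb); FAM-labelled non-covalent inhibitor probe; TritonX buffer, 200 mM NaCl; 5 nM DCN1 + 20 nM probe or 0.31 nM DCN1 + 900 nM total probe; 0.1% DMSO; TR-FRET read 1, 5, 24 hrs.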

[2] = target: T1, DCN1 (DCUND1) protein PONY domain; assay: Off-rate measurement of reversible covalent molecules (jump dilution TR-FRET with Cy5 probe); assay type: binding; conditions: for Category: binding mode category from off-rate assay
From the text: A typical covalent compound is assumed to stay bound to a protein for at least the life of that protein in the cell. In reality, there is a range of how long a covalent compounds remains bound before a reverse reaction takes place. Thus, some covalent bonds can be labeled as reversible as their reverse reaction takes place in a measurable amount of time under physiological conditions. The assay capitalizes on the range of covalent binders by using a high affinity covalent binder as a probe to displace the more reversible binders in an adaptation of the jump dilution method.
In this version of the jump dilution method, the increase in covalent probe binding over time was measured through a TR-FRET reaction between the covalent probe and the biotinylated target protein.
The recombinant form of the DCN1 (DCUND1) protein PONY domain was produced using an E. coli expression system at Viva Biotech (China). The DCN1 protein was biotinylated (EZ sulfo-NHS-LC-biotin; Thermofisher) for labeling with streptavidin terbium (Tb) cryptate in the reaction. This biotinylated protein was used in two forms of the TR-FRET assay as described below.
The off-rate measurement is executed in two steps based on the jump dilution method. […] The greatest dilution allowed within the constraints of the assay was chosen. These factors allow a competitive advantage for the covalent probe to replace the test compound when that compound releases from the target protein. The actual measure is the rate of increased TR-FRET signal as the covalent probe replaces the test compound over time. […] The resulting time dependent curve of the TR-FRET signal is fit to the following equation:
Y=Y0+(Plateau−Y0)*(1−exp(−K*x))
K is the rate constant (1/unit of time). The residence time is defined as the inverse of K, the rate constant. The half-life is calculated as ln(2)/K.

[3] = system: Cullin-3 (CUL3) neddylation; assay: AlphaLISA assay for Cullin-3 (CUL3) neddylation in TF 1 cells; assay type: cell-based; conditions: 3 hours treatment
Procedure, shortened: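 TF 1 cells in unsupplemented IMDM treated with compound concentrations for 3 h, then lysed. CUL3 neddylation detected by AlphaLISA (biotinylated anti-NEDD8, anti-CUL3 acceptor beads overnight, streptavidin donor beads 1 h); normalized to vehicle (0%) and 1 μM DI-1548 (100%), IC50 from Hill fits.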

fetal hemoglobin protein = assay: HbF HPLC Cell Culture Assay; assay type: cell-based; conditions: for EC50: 336 h, HbF induction, Day 14 of culture; for Hemoglobin HPLC Ymax obs (%): relative to a control compound
Experimental: A Cell Culture Assay was performed to evaluate the ability of compounds to induce fetal hemoglobin in a cell culture. The amount fetal hemoglobin protein induced was measured by HPLC.
Cell culture began on Day −4 (thaw day). Thaw buffer was prepared by sterile filtering 6 mL of Human Serum Albumin and 144 mL of PBS to make sterile 1% I/PBS. Cells were removed from liquid nitrogen storage and mostly thawed in a 37° C. water bath. Once the ice in the cryovials was melted, cells were transferred quickly into a 50 mL conical tube. Cryovial was rinsed once with thaw buffer and buffer was transferred over to the conical tube as well. Next, doubling volumes of thaw buffer was added to the conical and gently swirled for ˜30 seconds to one minute (for example: 2 mL was added and swirled, then 4 mL, then 8 mL, and so on) until the volume in the conical is 32 mL. Cells and buffer were centrifuged at 300G for 8 minutes, and the supernatant was aspirated. Another 32 mL of thaw buffer was added slowly, swirling the tube. The tube was again centrifuged at 300G for 8 minutes and the supernatant was aspirated. Cells were counted by resuspending in 1 mL of expansion media and counting with AOPI to determine the concentration of cells/mL.
On day 2, Passage & Treatment Day, each cell culture well was counted. Next fresh CD34 Expansion Media was made which contained StemSpan SFEM, CC100 and TPO all from StemCell technologies. Appropriate volume of cells was collected, centrifuged at 300 g and resuspended in fresh media. Cells were plated in treatment format at a density of 200,000 cells/ml, 25,000 cells/well. Finally, they were treated with test compounds as well as positive and negative controls.
On Days 0, 3 & 5 the same process was carried out. First, each cell culture well was counted. Next Phase 1 Erythroid Differentiation Media was freshly made, which contained StemSpan SFEM, 2.5 U/ml EPO, 0.5 mg/ml Holo-TF, 1× Glutamax, 5 μl/ml chemically defined lipid mixture, 10 ng/ml insulin, 50 ng/ml SCF, 10 ng/ml IL-3. Appropriate volume of cells was collected, centrifuged at 300 g and resuspended in fresh media. Cells should now be in fresh wells at a density of 100,000 cells/ml. 60,000 cells, 60,000 cells and 100,000 cells for days 0, 3, 5 respectively. Finally, fresh compound was added to each well at each timepoint (Days 0, 3 & 5).
On Day 7 media and cell culture density changes. Each cell culture well was counted. Next, Phase 2 Erythroid Differentiation Media was freshly made, which contains StemSpan SFEM, 2.5 U/ml EPO, 0.5 mg/ml Holo-TF, 1× Glutamax, 5 μl/ml chemically defined lipid mixture, 10 ng/ml insulin, 50 ng/ml SCF. Appropriate volume of cells was collected, centrifuged at 300 g and resuspended in fresh media. Cells were plated in fresh wells at a density of 500,000 cells/ml, 300,000 cells/well. Finally, fresh compound was added to each well at Day 7 timepoint.
On Day 10 media formulation is once again changed. Each cell culture well was counted. Fresh Phase 3 Erythroid Differentiation Media was made which contains StemSpan SFEM, 2.5 U/ml EPO, 0.5 mg/ml Holo-TF, 1× Glutamax, 5 μl/ml chemically defined lipid mixture, 10 ng/ml insulin. Appropriate volume of cells was collected, centrifuged at 300 g and resuspended in fresh media. Cells were plated in fresh wells at a density of 500,000 cells/ml, 500,000 cells/well. Finally, fresh compound was added to each well at Day 10 timepoint.
On Day 12 the cell density is once again changed. Each cell culture well was counted. Fresh Phase 3 Erythroid Differentiation Media was made. Appropriate volume of cells was collected, centrifuged at 300 g and resuspended in fresh media. Cells were plated in fresh wells at a density of 1,000,000 cells/ml, 1,000,000 cells/well. Finally fresh compound was added to each well.
Day 14 (18th day of experiment) refers to the terminal day of culture. Each cell culture well was counted. Next between 150K and 650K cells were placed in a uniquely labeled 1.5 ml standard tube. […]

[4] = 24 hr after treatment with compound, read-out: TR FRET IC50 24 hr
[5] = read-out: TR FRET IC50 1 hr, 1 hr after treatment with compound
[6] = TR FRET IC50 1 hr (nM), 1 hr after treatment with compound

Chain of DCN1 protein (Q96GG9 whole entry): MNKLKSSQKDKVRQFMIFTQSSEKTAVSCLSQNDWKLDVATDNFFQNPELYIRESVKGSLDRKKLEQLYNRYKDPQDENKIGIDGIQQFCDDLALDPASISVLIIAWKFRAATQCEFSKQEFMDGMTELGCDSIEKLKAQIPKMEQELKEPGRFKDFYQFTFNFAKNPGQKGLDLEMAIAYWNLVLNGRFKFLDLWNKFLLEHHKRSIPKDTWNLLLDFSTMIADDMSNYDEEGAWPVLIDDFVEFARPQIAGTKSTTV
T1 sequence (Q96GG9 60-248): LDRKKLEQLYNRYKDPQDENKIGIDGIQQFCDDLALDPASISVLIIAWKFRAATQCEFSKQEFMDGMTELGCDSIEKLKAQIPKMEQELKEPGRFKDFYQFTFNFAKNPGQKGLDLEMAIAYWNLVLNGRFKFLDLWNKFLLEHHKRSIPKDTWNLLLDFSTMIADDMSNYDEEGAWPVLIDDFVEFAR

| Compound | % Adduct Formation (DCN1 protein) | IC50 [1, 4] | IC50 [1, 5] | Category [2] | residence time ([2]; inverse of rate constant K, jump dilution TR-FRET) | koff ([2]; jump dilution, Cy5 covalent probe 150 nM, TR-FRET) | half-life ([2]; ln(2)/K, jump dilution TR-FRET) | IC50 ([3]; Homo sapiens, TF-1, 3 h) | IC50 [1, 6] | EC50 (fetal hemoglobin protein) | Hemoglobin HPLC Ymax obs (%) (fetal hemoglobin protein) | IC50 [3] |
| --- | --- | --- | --- | --- | --- | --- | --- | --- | --- | --- | --- | --- |
| CCN1C(=O)[C@@H](NC(=O)c2cccc(C(F)(F)F)c2)[C@@H](c2ccc(F)cc2)c2c(C(=O)N3CC[C@H]3C#N)nn(C3CCOCC3)c21 [Compound I-384] | + (MS Emax % adduct formation greater than or equal to 0.0 and less than or equal to 30.0) | ≤ 200 nM | ≤ 200 nM | reversible covalent | 184 min | 9.21e-05 s⁻¹ | 127.3 min | ≤ 100 nM |  |  |  |  |
| CCN1C(=O)[C@@H](NC(=O)c2cccc(C(F)(F)F)c2)[C@@H](C2CC2)c2c(C(=O)N3CCC[C@H]3C#N)nn(C3CCOCC3)c21 [Compound I-348] | ++ (MS Emax % adduct formation greater than 30.0 and less than or equal to 80.0) | ≤ 200 nM |  | slow reversible |  |  |  | ≤ 100 nM | 200 to 1000 nM |  |  |  |
| CCN1C(=O)[C@@H](NC(=O)c2cccc(C(F)(F)F)c2)[C@@H](c2ccc(F)cc2)c2c(C(=O)N(C)[C@@H](C#N)CCN(C)C)nn(-c3ccccc3)c21 (single isomer, unassigned) [Compound I-304, (4S,5S)—N-[(1R*)-1-cyano-3-(dimethylamino)propyl]-7-ethyl-4-(4-fluorophenyl)-N-methyl-6-oxo-1-phenyl-5-[3-(trifluoromethyl)benzamido]-4H,5H-pyrazolo[3,4-b]pyridine-3-carboxamide] |  |  |  |  |  |  |  | ≤ 100 nM |  | ≤ 50 nM |  |  |
| CCN1C(=O)[C@@H](NC(=O)c2cccc(C(F)(F)F)c2)C(c2ccc(F)cc2)c2c(C(=O)N(CC#N)C3COC3)nn(-c3ccccc3)c21 (mixture of isomers) [Compound I-285] | +++ (MS Emax % adduct formation greater than 80.0 and less than or equal to 100.0) | ≤ 200 nM | ≤ 200 nM |  |  |  |  | ≤ 100 nM |  | ≤ 50 nM | ++ (Hemoglobin HPLC Ymax greater than 65.0 and less than or equal to 100.0) |  |
| CCN1C(=O)[C@@H](NC(=O)c2cccc(C(F)(F)F)c2)[C@@H](c2ccc(F)cc2)c2c(C(=O)N(C)CC#N)nn(-c3ccccc3)c21 (racemic) [Compound I-5, rac-(4R,5R)—N-(cyanomethyl)-7-ethyl-4-(4-fluorophenyl)-N-methyl-6-oxo-1-phenyl-5-(3-(trifluoromethyl)benzamido)-4,5,6,7-tetrahydro-1H-pyrazolo[3,4-b]pyridine-3-carboxamide] | +++ (MS Emax % adduct formation greater than 80.0 and less than or equal to 100.0) | ≤ 200 nM |  |  |  |  |  | ≤ 100 nM | ≤ 200 nM | 50 to 200 nM | ++ (Hemoglobin HPLC Ymax greater than 65.0 and less than or equal to 100.0) |  |
| CCN1C(=O)[C@@H](NC(=O)c2cccc(C(F)(F)F)c2)[C@@H](c2ccc(F)cc2)c2c(C(=O)N3CCNC[C@@H]3C#N)nn(-c3ccccc3)c21 [Compound I-281] |  |  |  |  |  |  |  |  |  | ≤ 50 nM | ++ (Hemoglobin HPLC Ymax greater than 65.0 and less than or equal to 100.0) |  |
| CCN1C(=O)[C@@H](NC(=O)c2cccc(C(F)(F)F)c2)[C@@H](c2ccc(F)cc2)c2c(C(=O)N(C)[C@@H](C#N)C3COC3)nn(-c3ccccc3)c21 (single isomer, unassigned) [Compound I-294] | +++ (MS Emax % adduct formation greater than 80.0 and less than or equal to 100.0) |  |  |  |  |  |  |  |  | 50 to 200 nM | ++ (Hemoglobin HPLC Ymax greater than 65.0 and less than or equal to 100.0) | ≤ 100 nM |
| CCN1C(=O)[C@@H](NC(=O)c2cccc(C(F)(F)F)c2)[C@@H](c2ccc(F)cc2)c2c(C(=O)N3CCC[C@H]3C#N)nn(-c3ccccc3)c21 (racemic) [Compound I-34] |  | ≤ 200 nM |  |  |  |  |  | ≤ 100 nM | ≤ 200 nM | > 200 nM |  |  |
| CCN1C(=O)[C@@H](NC(=O)c2cccc(C(F)(F)F)c2)[C@@H](c2ccc(F)cc2)c2c(C(=O)N(C)[C@@H](C#N)CCN(C)C)nn(-c3ccccc3)c21 (relative stereo) [Compound I-304, (4S,5S)—N-[(1R*)-1-cyano-3-(dimethylamino)propyl]-7-ethyl-4-(4-fluorophenyl)-N-methyl-6-oxo-1-phenyl-5-[3-(trifluoromethyl)benzamido]-4H,5H-pyrazolo[3,4-b]pyridine-3-carboxamide] | +++ (MS Emax % adduct formation greater than 80.0 and less than or equal to 100.0) |  |  |  |  |  |  |  |  |  | ++ (Hemoglobin HPLC Ymax greater than 65.0 and less than or equal to 100.0) |  |
